Laboratory results: PMC3608651, “A Broad Profile of Co-Dominant Epitopes Shapes the Peripheral Mycobacterium tuberculosis Specific CD8+ T-Cell Immune Response in South African Patients with Active Tuberculosis” (PLoS ONE, 2013)

How the values were obtained:
Assay type in all cases: binding
HLA-A*30:01 = HLA-A*30:01 (Homo sapiens, UniProt P04439, D140H/D185E/E176W/F33S/G80R/H175R/K168Q/R138E/R41S); details: percent relative the binding of positive control peptide […]; duplicated experiments; positive binder >40%
HLA-A*02:01 = HLA-A*02:01 (Homo sapiens, UniProt P04439, D140Y/D185E/D98H/E176V/E277Q/G131W/G231S/I119V/I121R/I166T/I218V/L300P/L318F/N151K/N90K/P208A/P217A/Q86G/Q94H/R138H/R169H/T345S); details: percent relative the binding of positive control peptide […]; plate-bound monomer 0.5 µg/ml; duplicated experiments; positive binder >40%
HLA-A*30:02 = HLA-A*30:02 (Homo sapiens, UniProt P04439, D101N/D140H/D185E/E176R/F33S/G80R/H175R/K168Q/Q94H/R138E/R41S/V100E); details: percent relative the binding of positive control peptide […]; duplicated experiments; positive binder >40%
HLA-B*58:01 = HLA-B*58:01 (Homo sapiens, UniProt P01889, A329T/C349S/D201E/D98Y/E176V/E187L/E204Q/E69T/G107R/I218V/I90N/K202T/L105A/L119I/N104I/N87E/Q89R/Q94S/R106L/R155S/R180L/R86G/S101N/S121R/S35A/S48A/T118I/V127L/V306I/V36M/Y140S/Y91M); details: percent relative the binding of positive control peptide […]; duplicated experiments; positive binder >40%
HLA-B*07:02 = HLA-B*07:02 (Homo sapiens, UniProt P01889); details: percent relative the binding of positive control peptide […]; duplicated experiments; positive binder >40%
HLA-A*24:02 = HLA-A*24:02 (Homo sapiens, UniProt P04439, D101N/D140Y/D185E/E176V/E190D/F33S/G103R/G107R/I119L/I121M/I306V/K335N/L105A/L180Q/L300P/N151K/N90K/Q86E/Q94H/R106L/R138H/R89G/T104I/T345S/V100E/W191G/Y123F); details: percent relative the binding of positive control peptide […]; duplicated experiments; positive binder >40%
HLA-A*68:01 = HLA-A*68:01 (Homo sapiens, UniProt P04439, A269V/D185E/E176V/E277Q/E87N/F33Y/G231S/I121M/I166T/I218V/L180W/L300P/L318F/N151K/P208A/P217A/Q86R/R169H/T345S); details: percent relative the binding of positive control peptide […]; duplicated experiments; positive binder >40%
HLA-C*07:01 = HLA-C*07:01 (Homo sapiens, UniProt P10321, K90N/S123Y); details: percent relative the binding of positive control peptide […]; duplicated experiments; positive binder >40%

| Substance | Bind A*30:01 (HLA-A*30:01) | Bind A*02:01 (HLA-A*02:01) | Bind A*30:02 (HLA-A*30:02) | Bind B*58:01 (HLA-B*58:01) | Bind B*07:02 (HLA-B*07:02) | Bind A*24:02 (HLA-A*24:02) | Bind A*68:01 (HLA-A*68:01) | Bind C*07:01 (HLA-C*07:01) |
| --- | --- | --- | --- | --- | --- | --- | --- | --- |
| FIYAGSLSA | 0% | 79% | 21% | 2% | 70% | 11% | 38% | 35% |
| FLENFVRSS | 0% | 77% | 0% | 0% | 0% | 5% | 7% | 5% |
| FLTSELPQW | 0% | 75% | 3% | 71% | 8% | 117% | 5% | 0% |
| FYSDW YSPA | 13% | 61% | 0% | 0% | 0% | 10% | 0% | 0% |
| GANIPAEFL | 0% | 41% | 0% | 16% | 0% | 0% | 0% | 0% |
| GGANIPAEF | 0% | 4% | 70% | 57% | 0% | 0% | 0% | 5% |
| GGHNAVFNF | 0% | 40% | 0% | 52% | 19% | 34% | 0% | 22% |
| GGNNSPAVY | 0% | 0% | 90% | 0% | 0% | 0% | 3% | 45% |
| GGYKAADMW | 0% | 0% | 0% | 61% | 0% | 34% | 11% | 0% |
| GKAGCQTYK | 34% | 33% | 58% | 22% | 9% | 19% | 72% | 0% |
| GLSMAGSSA | 0% | 75% | 0% | 0% | 31% | 0% | 0% | 0% |
| NLGAEIAVE [Rv0288_27–35m1] | – | 29% | – | – | – | – | – | – |
| QNLGAEIAV [Rv0288_26–34m1] | – | 28% | – | 0% | – | – | – | – |
| TLQNLGAEI [Rv0288_24–32m1] | – | 26% | – | – | – | 4% | – | – |
| TMLDHAGDM [Rv0288_10–18m3] | – | 24% | 0% | – | – | 14% | – | – |
| VRAYHSMSS [Rv0288_66–74m1] | – | – | – | – | – | – | – | 3% |
| YNYPAMLDH [Rv0288_6–14m2] | – | – | – | – | – | – | – | 0% |
| YNYPTMLDH [Rv0288_6–14m3] | – | – | – | – | – | – | – | 0% |
| YNYPTMLGH [Rv0288_6–14m1] | – | – | – | – | – | – | – | 0% |
